Reference: US7691877B2, “Pharmaceuticals” (priority 2006, dated 2010)

Legend:
TLR7 receptor = molecular target: T1, TLR7 receptor (Homo sapiens, UniProt Q9NYK1); assay: PBL/HCV replicon bioassay; assay type: cell-based; details: concentration applied to PBL (24 h) giving 50% reduction of HCV replicon levels (luciferase) after transfer of PBL culture medium to Huh-7 replicon cells (48 h)
T1 construct: PBL contain as a subpopulation plasmacytoid dendritic cells which are the natural interferon producing cells; endogenous in cells; host or cells: peripheral blood lymphocytes (PBL), containing plasmacytoid dendritic cells
T1 sequence (Q9NYK1 27-1049): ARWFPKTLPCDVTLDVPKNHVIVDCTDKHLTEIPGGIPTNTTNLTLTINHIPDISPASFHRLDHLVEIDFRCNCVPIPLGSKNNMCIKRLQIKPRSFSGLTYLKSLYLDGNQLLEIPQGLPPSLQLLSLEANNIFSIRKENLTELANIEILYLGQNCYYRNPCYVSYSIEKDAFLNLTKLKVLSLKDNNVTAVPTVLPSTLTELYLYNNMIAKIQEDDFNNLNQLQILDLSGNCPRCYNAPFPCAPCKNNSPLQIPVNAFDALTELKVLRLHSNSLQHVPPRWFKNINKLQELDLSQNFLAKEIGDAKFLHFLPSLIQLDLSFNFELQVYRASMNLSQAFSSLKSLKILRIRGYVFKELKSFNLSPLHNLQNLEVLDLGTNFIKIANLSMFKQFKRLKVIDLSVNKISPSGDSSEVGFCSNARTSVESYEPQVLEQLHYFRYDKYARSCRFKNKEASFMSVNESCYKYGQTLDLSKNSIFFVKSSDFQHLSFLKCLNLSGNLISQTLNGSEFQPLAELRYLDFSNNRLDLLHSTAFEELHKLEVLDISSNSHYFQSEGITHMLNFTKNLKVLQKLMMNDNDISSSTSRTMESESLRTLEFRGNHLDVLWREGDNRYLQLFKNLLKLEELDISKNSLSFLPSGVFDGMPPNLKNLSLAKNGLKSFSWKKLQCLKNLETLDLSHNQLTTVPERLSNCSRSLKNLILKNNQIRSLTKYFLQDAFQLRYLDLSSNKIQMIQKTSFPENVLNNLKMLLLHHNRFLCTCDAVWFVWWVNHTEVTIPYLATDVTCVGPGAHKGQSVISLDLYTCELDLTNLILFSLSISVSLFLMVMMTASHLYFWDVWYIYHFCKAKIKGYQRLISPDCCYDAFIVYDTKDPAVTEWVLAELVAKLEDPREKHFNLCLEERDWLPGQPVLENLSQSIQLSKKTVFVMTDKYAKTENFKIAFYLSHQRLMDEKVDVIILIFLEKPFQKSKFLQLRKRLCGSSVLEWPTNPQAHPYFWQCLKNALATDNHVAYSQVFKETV
Description: PBL contain as a subpopulation plasmacytoid dendritic cells which are the natural interferon producing cells during an infection and as such are an excellent model in which to profile interferon inducers. As an extremly sensitive antiviral bioassay, supernatant taken from PBL is assayed for antiviral activity in the HCV replicon system.
The HCV replicon (Huh-5-2[I389luc-ubi-neo-NS3-3′/ET]) is an in vitro model of HCV replication in which the luciferase reporter is incorporated into HCV sequences and stably maintained in the human hepatoma cell line Huh-7. The firefly luciferase reporter is expressed as a luciferase-ubiquitin-neomycin phosphotransferase fusion protein which is cleaved by host proteases to release luciferase. The replicon also contains an internal EMCV IRES, which drives translation of HCV NS3-5B polyprotein, which harbour cell culture adapted mutations to permit high cloning efficiency. […] Firefly luciferase activity is detected using a Bright-Glo™ Luciferase Assay System manufactured by Promega.
An initial 3 fold serial dilution series of compounds in 100% DMSO is prepared from stocks. The dilution series is then further diluted 100 fold with complete RPMI-FCS. The final concentration of DMSO in the assay is thus 0.1% and that of the test compound is 1/1000 in the 100% DMSO dilution series. PBL are prepared seeded at 5×10^5/well/90 μl into the previously prepared compound containing assay plates (96 well clear bottomed TC grade) and incubated for 24 h.
LucUbiNeo HCV replicon cells are seeded at 10^4/well/90 μl. These are incubated for 24 h. After 24 h, 10 μl of medium is transferred from the PBL assay plates to the HCV replicon plates and incubated for a further 48 h.

[1] = test system: all other known Toll-like Receptors; assay: Selectivity for TLR7 over other Toll-like Receptors
[2] = test system: MEK, CDK1, CDK2, JNK, MSK, MSK-1, SGK, AMPK, MLCK, CHK-2, PDE3, PDE4 and PDE5; assay: Selectivity for TLR7 over kinases and phosphodiesterase enzymes; assay type: biochemical
[3] = test system: MAP (mitogen-activated protein kinase); assay: Selectivity for TLR7 over MAP; assay type: biochemical
[4] = test system: HCV replicon containing cells; assay: Direct response of HCV replicon containing cells to TLR agonists; assay type: cell-based, human; details: applied directly to replicon cells, without PBL conditioned medium

| Structure (SMILES) | EC50 (TLR7 receptor) [nM] | also measured |
| --- | --- | --- |
| Nc1nc(-c2ncco2)cc2c1[nH]c(=O)n2Cc1ccccc1 [Example 12, 4-Amino-1-benzyl-6-oxazol-2-yl-1,3-dihydro-imidazo[4,5-c]pyridin-2-one] | 240 | selectivity for the TLR7 receptor over MAP (mitogen-activated protein kinase) [3]: selective; selectivity for the TLR7 receptor over all other known Toll-like Receptors [1]: selective; selectivity for the TLR7 receptor over MEK, CDK1, CDK2, JNK, MSK, MSK-1, SGK, AMPK, MLCK, CHK-2, PDE3, PDE4 and PDE5 [2]: selective |
| CCc1coc(-c2cc3c([nH]c(=O)n3Cc3ccc(C)nc3)c(N)n2)n1 [Example 20, 4-Amino-6-(4-ethyl-oxazol-2-yl)-1-(6-methyl-pyridin-3-ylmethyl)-1,3-dihydro-imidazo[4,5-c]pyridin-2-one] | 700 | – |
| Nc1nc(-c2ncc[nH]2)cc2c1[nH]c(=O)n2Cc1ccccc1 [Example 21, 4-Amino-1-benzyl-6-(1H-imidazol-2-yl)-1,3-dihydro-imidazo[4,5-c]pyridin-2-one] | 215 | – |
| Nc1nc(-c2ccccc2F)cc2c1[nH]c(=O)n2Cc1ccccc1 [Example 22, 4-Amino-1-benzyl-6-(2-fluoro-phenyl)-1,3-dihydro-imidazo[4,5-c]pyridin-2-one] | 450 | – |
| Cc1cc2c([nH]c(=O)n2Cc2cccc(C(F)(F)F)c2)c(N)n1 [Example 25] | 1000 | – |
| Cc1cc2c([nH]c(=O)n2Cc2cccc(F)c2)c(N)n1 [Example 27] | 453 | – |
| Nc1nc2c(c3c1[nH]c(=O)n3Cc1ccccc1)CCC2 [Example 31] | 3260 | – |
| Nc1nc(-c2ccccn2)cc2c1[nH]c(=O)n2Cc1ccccc1 [Example 32] | 1710 | – |
| Nc1nc(C(F)(F)F)cc2c1[nH]c(=O)n2Cc1ccc(F)cc1 [Example 54] | 302 | – |
| COCCn1c(=O)[nH]c2c(N)nc(C(F)(F)F)cc21 [Example 55] | 2000 | – |
| Nc1nc(C(F)(F)F)cc2c1[nH]c(=O)n2Cc1ccc(Cl)nc1 [Example 60] | 445 | – |
| Cc1nc(N)c2[nH]c(=O)n(Cc3ccc(F)cc3)c2c1C [Example 61] | 1680 | – |
| Nc1nc(C(F)(F)F)cc2c1[nH]c(=O)n2Cc1ccc(Br)cc1 [Example 70] | 656 | – |
| Cc1ccc(Cn2c(=O)[nH]c3c(N)nc(-c4cnco4)cc32)cn1 [Example 78] | 100 | – |
| Cc1ccc(Cn2c(=O)[nH]c3c(N)nc(-c4ncno4)cc32)cn1 [Example 82] | 127 | – |
| CC(C)Cn1cnc2c(N)nc3ccccc3c21 [Imiquimod] | – | direct response of HCV replicon containing cells to the TLR agonist [4]: do not respond directly |

Second part, led by results:

| EC50 (TLR7 receptor) [nM] | Structure (SMILES) | also measured |
| --- | --- | --- |
| 933 | Nc1nc(C2CC2)cc2c1[nH]c(=O)n2Cc1ccccc1 [Example 1, 4-Amino-1-benzyl-6-cyclopropyl-1,3-dihydro-imidazo[4,5-c]pyridin-2-one] | selectivity for the TLR7 receptor over all other known Toll-like Receptors [1]: selective; selectivity for the TLR7 receptor over MEK, CDK1, CDK2, JNK, MSK, MSK-1, SGK, AMPK, MLCK, CHK-2, PDE3, PDE4 and PDE5 [2]: selective |
| 1540 | Cc1cc2c([nH]c(=O)n2Cc2ccccc2)c(N)n1 [Example 2, 4-Amino-1-benzyl-6-methyl-1,3-dihydro-imidazo[4,5-c]pyridin-2-one] | selectivity for the TLR7 receptor over all other known Toll-like Receptors [1]: selective; selectivity for the TLR7 receptor over MEK, CDK1, CDK2, JNK, MSK, MSK-1, SGK, AMPK, MLCK, CHK-2, PDE3, PDE4 and PDE5 [2]: selective |
| 266 | Cc1nc(N)c2[nH]c(=O)n(Cc3ccccc3)c2c1C [Example 3, 1-Benzyl-4-amino-6,7-dimethyl-1,3-dihydro-imidazo[4,5-c]Pyridin-2-one] | – |
| 497 | COC(=O)c1cc2c([nH]c(=O)n2Cc2ccccc2)c(N)n1 [Example 4, 4-Amino-1-benzyl-2-oxo-2,3-dihydro-1H-imidazo[4,5-c]pyridine-6-carboxylic acid methyl ester] | – |
| 955 | COCCOc1cc2c([nH]c(=O)n2Cc2ccccc2)c(N)n1 [Example 17, 4-Amino-1-benzyl-6-(2-methoxy-ethoxy)-1,3-dihydro-imidazo[4,5-c]pyridin-2-one] | – |
| 1080 | CCCc1cc2c([nH]c(=O)n2Cc2ccccc2)c(N)n1 [Example 23] | – |
| 1600 | CC(C)c1cc2c([nH]c(=O)n2Cc2ccccc2)c(N)n1 [Example 24] | – |
| 1300 | COCCNCc1cc2c([nH]c(=O)n2Cc2ccccc2)c(N)n1 [Example 34] | – |
| 368 | CC(=O)c1cc2c([nH]c(=O)n2Cc2ccccc2)c(N)n1 [Example 36] | – |
| 786 | CCc1cc2c([nH]c(=O)n2Cc2ccccc2)c(N)n1 [Example 37] | – |
| 848 | Nc1nc(C(F)F)cc2c1[nH]c(=O)n2Cc1ccccc1 [Example 38] | – |
| 2200 | N#Cc1cc2c([nH]c(=O)n2Cc2ccccc2)c(N)n1 [Example 39] | – |
| 427 | COCc1cc2c([nH]c(=O)n2Cc2ccccc2)c(N)n1 [Example 40] | – |
| 2170 | COCCNc1cc2c([nH]c(=O)n2Cc2ccccc2)c(N)n1 [Example 49] | – |
| 1970 | Nc1nccc2c1[nH]c(=O)n2Cc1ccccc1 [Example 50] | – |
| 470 | Nc1nc(-n2cccn2)cc2c1[nH]c(=O)n2Cc1ccccc1 [Example 83] | – |
| 550 | Cc1cnn(-c2cc3c([nH]c(=O)n3Cc3ccccc3)c(N)n2)c1 [Example 86] | – |
